# Experimental data as given in patent US20220047551A1, “PHARMACEUTICAL AGENT FOR TREATING AMYOTROPHIC LATERAL SCLEROSIS OR SUPPRESSING DISEASE PROGRESS THEREOF” (Mitsubishi Tanabe Pharma Corporation, priority 2011, published 2022).
# Tested on: patients with amyotrophic lateral sclerosis
# Assay: Placebo-controlled clinical test in amyotrophic lateral sclerosis patients, measured in terms of ALSFRS-R
# Assay type: in vivo, human
# Method: 199 patients with amyotrophic lateral sclerosis who complied with the following selection standards were divided into an actual drug administration group consisting of 100 patients and a placebo administration group of 99 patients:
# With regard to the actual drug administration group, two ampules of “Radicut (registered trademark), Injection 30 mg” (containing 30 mg of 3-methyl-1-phenyl-2-pyrazolin-5-one; manufactured and distributed by Mitsubishi Tanabe Pharma Corporation) were diluted with a suitable amount of normal saline before the use, and the thus prepared solution was intravenously administered to the patients by drops over 60 minutes once a day. On the other hand, with regard to the placebo administration group, only normal saline was administered to the patients in the same manner as for the actual drug administration group.
# The administration period was divided into first to sixth courses. The first course consisted of a continuous 14-day administration period and the subsequent drug holiday period for 14 days in which drug administration was not carried out. In the second to sixth courses, 1 set consisting of an administration period for a total of 10 out of 14 days and the subsequent 14-day drug holiday period was repeated 5 times.
# Before initiation of the drug administration in the first course, and upon termination of the drug holiday periods in the first, second, third, fourth, fifth and sixth courses, the 199 patients were measured in terms of ALSFRS-R. Among the 199 patients, some patients were dropped out from the test during a period after initiation of the administration in the fourth course and before termination of the drug holiday period in the sixth course. In the case of these drop-out patients, the ALSFRS-R score measured immediately before dropping out from the test was considered to be the score upon termination of the drug holiday period in the sixth course, and it was used in the analysis.
# A difference between the ALSFRS-R scores between before initiation of the administration in the first course and upon termination of the drug holiday period in the sixth course is shown below.
# Subsequently, the 199 patients were divided into the following (1) to (7):
# (1) patients who were determined to be “Definite ALS” or “Probable ALS” according to the revised El Escorial (Airlie House) diagnostic criteria; (2) patient who were determined to be “Definite ALS” according to the revised El Escorial (Airlie House) diagnostic criteria; (3) patients who scored two or more points from all items constituting the ALSFRS-R; (4) patients whose % FVC was 80% or more; (5) patients who scored two or more points from all items constituting the ALSFRS-R and whose % FVC was 80% or more; (6) patients who were determined to be “Definite ALS” or “Probable ALS” according to the revised El Escorial (Airlie House) diagnostic criteria, scored two or more points from all items constituting the ALSFRS-R, and whose % FVC was 80% or more; and (7) patients who were determined to be “Definite ALS” according to the revised El Escorial (Airlie House) diagnostic criteria, scored two or more points from all items constituting the ALSFRS-R, and whose % FVC was 80% or more. With regard to the thus specified patients (1) to (7), differences in the ALSFRS-R scores between before the administration in the first course and upon termination of the drug holiday period in the sixth course are shown below.
compound,measurement,setting,value
"CC1=NN(c2ccccc2)C(=O)C1 [Actual drug, 3-methyl-1-phenyl-2-pyrazolin-5-one]",Between-group difference in ALSFRS-R score change (actual drug vs placebo),(1) Definite ALS or Probable ALS,1.2 points
same,Before-and-after difference in ALSFRS-R score,"(1) Definite ALS or Probable ALS, before first course vs end of sixth course",−5.7 points
same,Between-group difference in ALSFRS-R score change (actual drug vs placebo),(2) Definite ALS,2.0 points
same,Before-and-after difference in ALSFRS-R score,"(2) Definite ALS, before first course vs end of sixth course",−6.7 points
same,Between-group difference in ALSFRS-R score change (actual drug vs placebo),(3) two or more points from all items constituting ALSFRS-R,1.6 points
same,Before-and-after difference in ALSFRS-R score,"(3) two or more points from all items constituting ALSFRS-R, before first course vs end of sixth course",−4.7 points
same,Between-group difference in ALSFRS-R score change (actual drug vs placebo),(4) 80% or more % FVC,1.3 points
same,Before-and-after difference in ALSFRS-R score,"(4) 80% or more % FVC, before first course vs end of sixth course",−3.9 points
same,Between-group difference in ALSFRS-R score change (actual drug vs placebo),(5) two or more points from all ALSFRS-R items and 80% or more % FVC,2.5 points
same,Before-and-after difference in ALSFRS-R score,"(5) two or more points from all ALSFRS-R items and 80% or more % FVC, before first course vs end of sixth course",−3.4 points
same,Between-group difference in ALSFRS-R score change (actual drug vs placebo),"(6) Definite ALS or Probable ALS, two or more points from all ALSFRS-R items, and 80% or more % FVC",3.7 points
same,Before-and-after difference in ALSFRS-R score,"(6) Definite ALS or Probable ALS, two or more points from all ALSFRS-R items, and 80% or more % FVC, before first course vs end of sixth course",−3.8 points
same,Between-group difference in ALSFRS-R score change (actual drug vs placebo),"(7) Definite ALS, two or more points from all ALSFRS-R items, and 80% or more % FVC",6.4 points
same,Before-and-after difference in ALSFRS-R score,"(7) Definite ALS, two or more points from all ALSFRS-R items, and 80% or more % FVC, before first course vs end of sixth course",−4.6 points
same,Between-group difference in ALSFRS-R score change (actual drug vs placebo),all patients (not specified),0.7 points
same,Before-and-after difference in ALSFRS-R score,"all patients (not specified), before first-course administration vs end of sixth-course drug holiday, 60 mg i.v. drops over 60 min once a day",−5.3 points
same,Comparison with the placebo administration group (ALSFRS-R difference),patient groups (5) to (7),significant difference
same,Reduction of the risk of death or tracheostomy,"specific patients (1) to (7), extrapolated from 7% risk per 1 point ALSFRS-R (Neurology 2005; 64: 38-43)",≥ 3.5%
